# Assay results from patent US8465788B2, “Arabinoxylans for modulating the barrier function of the intestinal surface” (BioActor B.V., priority 2008, dated 2013).
# How the values were obtained:
# [1] = tested on: fecal microbial community; assay: SHIME in vitro gastrointestinal model: short chain fatty acid (A, P, B) ratios; type: cell-based, human; conditions: for A ratio (A/(A + P + B)), Ascending colon / A ratio, Descending colon / A ratio, Transverse colon / B ratio, Ascending colon / B ratio, Descending colon / B ratio, Transverse colon / P ratio, Ascending colon / P ratio, Descending colon / P ratio, Transverse colon: TWINSHIME
# Excerpt: In Vitro Gastrointestinal Model—the Simulator of the Human Intestinal Microbial Ecosystem (SHIME)
# The reactor setup was adapted from the SHIME, representing the gastrointestinal tract of the adult human, as described by Molly et al. (Molly, Woestyne et al. 1993). The SHIME consists of a succession of five reactors simulating the different parts of the human gastrointestinal tract. The first two reactors are of the fill-and-draw principle to simulate different steps in food uptake and digestion, with peristaltic pumps adding a defined amount of SHIME feed (140 mL 3×/day) and pancreatic and bile liquid (60 mL 3×/day), respectively to the stomach (V1) and duodenum (V2) compartment and emptying the respective reactors after specified intervals. The last three compartments are continuously stirred reactors with constant volume and pH control. Retention time and pH of the different vessels are chosen in order to resemble in vivo conditions in the different parts of the gastrointestinal tract. The overall residence time of the last three vessels, simulating the large intestine, is 76 h. Upon inoculation with fecal microbiota, these reactors simulate the ascending (V3), transverse (V4) and descending (V5) colon. Inoculum preparation, retention time, pH, temperature settings and reactor feed composition were previously described by Possemiers et al. (Possemiers, Verthe et al. 2004). In the comparison with of AX with inulin, two systems with identical environmental conditions (identical pH and temperature control) were run in parallel.
# For the evaluation of the 2 prebiotics, the colon compartments of the SHIME reactors were first inoculated with an isolated fecal microbial community of a selected healthy volunteer. The SHIME reactor was operated under nominal conditions to stabilize the microbial community and let it adapt its metabolic activity and community composition to the conditions prevailing in the respective colon compartments. This stabilization period lasted for 3 weeks.
# During the basal period, the SHIME reactor was operated under nominal conditions. Parameters such as short chain fatty acid (SCFA) production and ammonium production were determined 3 times/week. The results of these analyses served as the background values to be used to compare the measured parameters from the treatment period. The basal period lasted 2 weeks.
# During the treatment period, the SHIME reactor was operated under nominal conditions, but with a modified diet containing a lower amount of starch in the medium compared to that of the basal period. In parallel, the ascending colon compartment of the first SHIME received inulin, whereas the second SHIME received AX. Both compounds were added in low doses of 1.5 g/d. SCFA and ammonium production were determined 3 times/week. This treatment period typically lasts for 3 weeks.
# During the washout period, the SHIME reactor was operated under nominal conditions, with the initial diet. SCFA and ammonium production were determined 3 times/week. Analysis of these parameters allowed to assess whether possible changes from the treatment period normalize again to the levels of the basal period.
# As acetate (A), propionate (P) and butyrate (B) are the main fatty acids produced by intestinal bacteria, the results are expressed as the ratio of each fatty acid to the sum of the 3 fatty acids.
# bifidobacteria = assay: DGGE fingerprint of the bifidobacterial community in the cecum of human-microbiota associated rats; type: in vivo, rat; conditions: 10% in diet, three weeks
# Excerpt: FIG. 3 DGGE (Denaturing Gradient Gel Electrophoresis) fingerprint profiles of the community of bifidobacteria in the cecum of three groups of human-microbiota associated rats (n=8/group) treated for 3 weeks with a control diet, inulin (10%) or AX (10%). The profiles were obtained after amplification of the bifidobacterial community using group-specific PCR primers.
# Three groups of eight rats with human associated microbiotia were used in the experiment: • Control • Inulin • AX
# During three weeks animals were treated with either 10% inulin, AX or a control diet (=5% sugar+5% cornstarch) in order to compare the prebiotic effects of both oligosaccharides. At the end of the three weeks, the animals were euthanized.
# In addition to this, the composition of the bifidobacterial community in the cecum was monitored by Denaturing Gradient Gel Electrophoresis (DGGE) (FIG. 3). […] Bifidobacterium longum is one of most important inhabitants in the human body. This bacterium is very helpful because it maintains a normal digestive tract, inhibits the growth of harmful bacteria, and also boosts the immune system (Reinert, Birgit. “Friendly tenants in the human gut: The genome of B. longum”. 2002. Genome News Network).
# intestinal bacteria = assay: Prebiotic Index (gut lumen) and Prebiotic Attachment Index (gut wall mucus) in TWINSHIME; type: cell-based, human; conditions: from day 23, TWINSHIME
# Protocol: FIG. 4 Prebiotic Index (PI) and Prebiotic Attachment Index (PAI) before, during and after treatment with respectively inulin and AX. The X-axis indicates experiment days during the TWINSHIME run. Inulin or AX were administered to the TWINSHIME from day 2 until day 23.
# In addition to the above-mentioned measurements, experiments were performed to quantify the attachment of intestinal bacteria to the mucus layer at the gut wall. As attachment to the gut wall is the first stage of interaction between bacteria and the human host (e.g. immunomodulation, pathogenesis), characterization of the microbial ecology at the site of the gut wall and assessment of changes in this community due to a prebiotic treatment is very important to evaluate the final health effects of a prebiotic treatment. Finally, the effect of the prebiotic treatment with inulin or AX on the composition of the microbial community in both the gut lumen and at the gut wall can be expressed quantitatively in specific indices.
# The Prebiotic Index (PI) describes the increase in the gut lumen in beneficial bacteria, relative to harmful bacteria due to the prebiotic treatment. PI=(Bif/Total)+(Lac/Total)−(Ecol/Total)−(Clos/Total) […]
# For both indices, an increase in the quantitative value is evaluated as positive, with the degree of increase as a parameter for success of the prebiotic treatment (FIG. 4).
substance,measurement,setting,value
inulin,prebiotic effect (relative increase in P and B compared to A) in the colon compartments,"[1]; SHIME, 1.5 g/d",only minor effects were observed in one colon compartment
same,"A ratio (A/(A + P + B)), Ascending colon","[1]; treatment period, 1.5 g/d",0.45
same,"A ratio, Descending colon","[1]; treatment period, 1.5 g/d",0.48
same,"A ratio, Transverse colon","[1]; treatment period, 1.5 g/d",0.43
same,"B ratio, Ascending colon","[1]; treatment period, 1.5 g/d",0.27
same,"B ratio, Descending colon","[1]; treatment period, 1.5 g/d",0.24
same,"B ratio, Transverse colon","[1]; treatment period, 1.5 g/d",0.26
same,"P ratio, Ascending colon","[1]; treatment period, 1.5 g/d",0.29
same,"P ratio, Descending colon","[1]; treatment period, 1.5 g/d",0.28
same,"P ratio, Transverse colon","[1]; treatment period, 1.5 g/d",0.31
same,"A ratio (A/(A + P + B)), Ascending colon",[1]; wash-out period,0.45
same,"A ratio, Descending colon",[1]; wash-out period,0.53
same,"A ratio, Transverse colon",[1]; wash-out period,0.44
same,"B ratio, Ascending colon",[1]; wash-out period,0.20
same,"B ratio, Descending colon",[1]; wash-out period,0.19
same,"B ratio, Transverse colon",[1]; wash-out period,0.21
same,"P ratio, Ascending colon",[1]; wash-out period,0.35
same,"P ratio, Descending colon",[1]; wash-out period,0.28
same,"P ratio, Transverse colon",[1]; wash-out period,0.35
same,composition of the bifidobacterial community in the cecum (DGGE),bifidobacteria,little changes
same,Prebiotic Attachment Index (PAI) after stopping the administration,intestinal bacteria,returned back to baseline
same,Prebiotic Index (PI) after stopping the administration,intestinal bacteria,returned back to baseline
